From ChEMBL document CHEMBL1130536 (Bioorg Med Chem Lett, 1997)

Key:
[1] = biological target: Glutamate NMDA receptor; assay: Binding affinity against glycine binding site of NMDA receptor using [3H]glycine; type: protein-complex assay, Rattus norvegicus
[2] = biological target: Glutamate receptor ionotropic AMPA (Homo sapiens, UniProt P42261+P42262+P42263+P48058)
Description: In vitro binding affinity against AMPA receptor by [3H]AMPA displacement.

[3] = tested on: Mus musculus; assay: Mean effective dose that protects 50% of the mice against AMPA-induced lethality when it administered ip, 60 minutes prior to application of AMPA icv; type: functional
[4] = species: Mus musculus; assay: The compound was tested for Mean effective dose which protects the mice against seizures induced by Maximum electroshock; type: functional
[5] = species: Mus musculus; assay: Percent protection of the mice against seizures induced by Maximum electroshock, by the compound was determined; type: functional
[6] = species: Mus musculus; assay: The compound was tested for Mean effective dose which protects the mice against seizures induced by Maximum electroshock (MES); type: functional

Compound	Ki [1]	Ki [2]	ED50 [3]	ED50 [4]	Protection [5]	ED50 [6]
CCOC(=O)Cn1c(=O)c(=O)[nH]c2cc(C(F)(F)F)c(-n3ccc(C(=O)O)c3)cc21	> 30000 nM	1500 nM	–	–	–	–
O=c1[nH]c2cc(-n3ccnc3)c([N+](=O)[O-])cc2[nH]c1=O [YM-90K]	7400 nM	–	13 mg/kg	–	–	–
CCOC(=O)c1ccc(NC(=O)NCc2ccn(-c3cc4nc(O)c(O)nc4cc3C(F)(F)F)c2)cc1	–	450 nM	–	–	–	–
CCOC(=O)Cn1c(=O)c(=O)[nH]c2cc([N+](=O)[O-])c(-n3ccc(C(=O)O)c3)cc21	–	215 nM	–	–	–	–
CCOC(=O)c1ccc(NC(=O)NCc2ccn(-c3cc4c(cc3C(F)(F)F)[nH]c(=O)c(=O)n4CC(=O)O)c2)cc1	> 30000 nM	4 nM	0.8 mg/kg	–	–	–
NS(=O)(=O)c1cccc2c1c([N+](=O)[O-])cc1nc(O)c(O)nc12 [NBQX]	33000 nM	–	–	46 mg/kg	31%	–
O=C(O)Cn1c(=O)c(=O)[nH]c2cc(C(F)(F)F)c(-n3ccc(CNC(=O)Nc4ccc(C(=O)O)cc4)c3)cc21	> 30000 nM	7 nM	0.27 mg/kg	–	–	1.4 mg/kg
CCOC(=O)c1cccc(NC(=O)NCc2ccn(-c3cc4c(cc3C(F)(F)F)[nH]c(=O)c(=O)n4CC(=O)O)c2)c1	> 30000 nM	4 nM	2.9 mg/kg	–	–	28.5 mg/kg
O=C(O)Cn1c(=O)c(=O)[nH]c2cc([N+](=O)[O-])c(-n3ccc(C(=O)O)c3)cc21	> 30000 nM	–	1.4 mg/kg	–	–	2.4 mg/kg
O=C(NCc1ccn(-c2cc3nc(O)c(O)nc3cc2C(F)(F)F)c1)Nc1ccc(C(=O)O)cc1	> 30000 nM	54 nM	~11 mg/kg	46 mg/kg	0%	–
O=C(O)Cn1c(=O)c(=O)[nH]c2cc(C(F)(F)F)c(-n3ccc(C(=O)O)c3)cc21	> 30000 nM	66 nM	2.3 mg/kg	–	–	2.4 mg/kg
O=C(O)Cn1c(=O)c(=O)[nH]c2cc(C(F)(F)F)c(-n3ccc(CNC(=O)Nc4cccc(C(=O)O)c4)c3)cc21	> 30000 nM	20 nM	3.5 mg/kg	–	–	13.5 mg/kg
O=C(O)c1ccn(-c2cc3nc(O)c(O)nc3cc2[N+](=O)[O-])c1	> 30000 nM	60 nM	17 mg/kg	–	–	–
